In ChEMBL document CHEMBL3217584, “Pharmacokinetics of bendamustine in the central nervous system: chemoinformatic screening followed by validation in a murine model” (Medchemcomm, 2012):

Columns and labels:
[1] = Half life in C57BL/6J mouse serum at 70 mg/kg, ip by CE-UV analysis; format: ADME, organism-based; design: dose 70 mg/kg, route intraperitoneal
[2] = Drug uptake in C57BL/6J mouse eye at 70 mg/kg, ip measured at 20 to 40 mins by CE-UV analysis; format: ADME, organism-based; design: dose 70 mg/kg, route intraperitoneal; settings: in vivo
Brain = experiment: Drug uptake in C57BL/6J mouse brain at 70 mg/kg, ip measured at 20 to 40 mins by CE-UV analysis; format: ADME, organism-based; design: dose 70 mg/kg, route intraperitoneal; settings: in vivo
[3] = AUC in C57BL/6J mouse serum at 70 mg/kg, ip by CE-UV analysis; format: ADME, organism-based, Plasma; design: dose 70 mg/kg, route intraperitoneal
[4] = Ratio of AUC in C57BL/6J mouse CSF to AUC in C57BL/6J mouse serum; format: ADME
[5] = Cmax in C57BL/6J mouse CSF at 70 mg/kg, ip measured at 20 to 40 mins by CE-UV analysis; format: ADME, organism-based, Cerebrospinal fluid; design: dose 70 mg/kg, route intraperitoneal
[6] = AUC in C57BL/6J mouse CSF at 70 mg/kg, ip by CE-UV analysis; format: ADME, organism-based; design: dose 70 mg/kg, route intraperitoneal

Cn1c(CCCC(=O)O)nc2cc(N(CCCl)CCCl)ccc21 [BENDAMUSTINE]
half-life [1]: 40 min | Drug uptake [2]: Active | Drug uptake (Brain): Active | AUC [3]: 575 µM·h | Ratio AUC [4]: 35% | Cmax [5]: 393 µM | AUC [6]: 210 µM·h
